Legend:
Type in all cases: cell-based
[1] = system: IL-2 secretion from T cells in human whole blood; conditions: read-out: WB (IL-2) IC50 (nM, Avg)
hKv1.3 = hKv1.3 (Homo sapiens, UniProt P22001); assay: cell-based; conditions: Kv1.3 (IWQ) IC50 (nM, Avg)
[2] = system: IFN-g secretion from T cells in human whole blood; conditions: read-out: WB (IFNg) IC50 (nM, Avg)

hKv1.3, sequence (P22001 whole entry): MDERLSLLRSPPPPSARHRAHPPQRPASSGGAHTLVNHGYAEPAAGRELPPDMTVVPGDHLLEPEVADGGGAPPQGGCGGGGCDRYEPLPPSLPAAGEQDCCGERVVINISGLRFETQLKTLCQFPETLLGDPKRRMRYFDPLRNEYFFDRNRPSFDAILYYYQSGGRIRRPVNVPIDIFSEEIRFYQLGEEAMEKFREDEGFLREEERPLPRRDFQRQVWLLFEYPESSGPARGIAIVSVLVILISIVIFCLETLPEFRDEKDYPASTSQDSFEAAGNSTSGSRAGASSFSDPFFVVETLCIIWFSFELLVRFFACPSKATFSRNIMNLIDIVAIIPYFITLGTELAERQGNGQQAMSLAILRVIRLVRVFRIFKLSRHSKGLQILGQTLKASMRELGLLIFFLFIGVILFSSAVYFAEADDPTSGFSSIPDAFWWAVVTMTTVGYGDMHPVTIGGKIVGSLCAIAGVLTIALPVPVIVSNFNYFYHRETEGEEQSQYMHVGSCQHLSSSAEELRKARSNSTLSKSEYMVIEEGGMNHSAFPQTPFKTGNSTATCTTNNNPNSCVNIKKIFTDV

CC[C@H](C)[C@@H]1NC(=O)[C@@H](NC(=O)[C@H](CO)NC(=O)[C@@H](N)CCCNC(=N)N)CSSC[C@@H](C(=O)O)NC(=O)[C@H]([C@@H](C)O)NC(=O)CNC(=O)[C@@H]2CSSC[C@@H]3NC(=O)[C@H](CCC(N)=O)NC(=O)[C@H](Cc4ccccc4)NC(=O)[C@H](C)NC(=O)[C@H]([C@@H](C)O)NC(=O)[C@H](CSSC[C@H](NC(=O)[C@H](Cc4ccccc4)NC(=O)[C@H](CO)NC(=O)[C@H](CC(C)C)NC(=O)[C@H](CCCNC(=N)N)NC(=O)[C@H](Cc4ccc(O)cc4)NC(=O)[C@H](CCCCN)NC(=O)[C@H](CCSC)NC(=O)[C@H](CO)NC(=O)[C@H](Cc4c[nH]cn4)NC(=O)[C@H](CCCCN)NC3=O)C(=O)N[C@@H](CCCNC(=N)N)C(=O)N[C@@H](CCCCN)C(=O)N[C@@H]([C@@H](C)O)C(=O)N2)NC(=O)[C@H](CCCNC(=N)N)NC(=O)[C@H](Cc2cccc3ccccc23)NC(=O)[C@H](CCCCN)NC(=O)[C@@H]2CCCN2C(=O)[C@H]([C@@H](C)CC)NC(=O)[C@H]([C@@H](C)O)NC(=O)[C@H](CC(=O)O)NC1=O [[1-Nal10]ShK]
IC50 [1]: 0.205 nM | IC50 (hKv1.3): 0.206 nM | IC50 [2]: 0.255 nM

CC[C@H](C)[C@@H]1NC(=O)[C@@H](NC(=O)[C@H](CO)NC(=O)[C@@H](N)CCCNC(=N)N)CSSC[C@@H](C(=O)O)NC(=O)[C@H]([C@@H](C)O)NC(=O)CNC(=O)[C@@H]2CSSC[C@@H]3NC(=O)[C@H](CCC(N)=O)NC(=O)[C@H](Cc4ccccc4)NC(=O)[C@H](C)NC(=O)[C@H]([C@@H](C)O)NC(=O)[C@H](CSSC[C@H](NC(=O)[C@H](Cc4ccccc4)NC(=O)[C@H](CO)NC(=O)[C@H](CC(C)C)NC(=O)[C@H](CCCNC(=N)N)NC(=O)[C@H](Cc4ccc(O)cc4)NC(=O)[C@H](CCCCN)NC(=O)[C@H](CCSC)NC(=O)[C@H](CO)NC(=O)[C@H](Cc4c[nH]cn4)NC(=O)[C@H](CCCCN)NC3=O)C(=O)N[C@@H](CCCNC(=N)N)C(=O)N[C@@H](CCCCN)C(=O)N[C@@H]([C@@H](C)O)C(=O)N2)NC(=O)[C@H](Cc2cccc3ccccc23)NC(=O)[C@H](CO)NC(=O)[C@H](CCCCN)NC(=O)[C@@H]2CCCN2C(=O)[C@H]([C@@H](C)CC)NC(=O)[C@H]([C@@H](C)O)NC(=O)[C@H](CC(=O)O)NC1=O [[1-Nal11]ShK]
IC50 [1]: 1.14 nM | IC50 (hKv1.3): 0.922 nM | IC50 [2]: 1.65 nM

CC[C@H](C)[C@@H]1NC(=O)[C@@H](NC(=O)[C@H](CO)NC(=O)[C@@H](N)CCCNC(=N)N)CSSC[C@@H](C(=O)O)NC(=O)[C@H]([C@@H](C)O)NC(=O)CNC(=O)[C@@H]2CSSC[C@@H]3NC(=O)[C@H](CCC(N)=O)NC(=O)[C@H](Cc4cccc5ccccc45)NC(=O)[C@H](C)NC(=O)[C@H]([C@@H](C)O)NC(=O)[C@H](CSSC[C@H](NC(=O)[C@H](Cc4ccccc4)NC(=O)[C@H](CO)NC(=O)[C@H](CC(C)C)NC(=O)[C@H](CCCNC(=N)N)NC(=O)[C@H](Cc4ccc(O)cc4)NC(=O)[C@H](CCCCN)NC(=O)[C@H](CCSC)NC(=O)[C@H](CO)NC(=O)[C@H](Cc4c[nH]cn4)NC(=O)[C@H](CCCCN)NC3=O)C(=O)N[C@@H](CCCNC(=N)N)C(=O)N[C@@H](CCCCN)C(=O)N[C@@H]([C@@H](C)O)C(=O)N2)NC(=O)[C@H](CCCNC(=N)N)NC(=O)[C@H](CO)NC(=O)[C@H](CCCCN)NC(=O)[C@@H]2CCCN2C(=O)[C@H]([C@@H](C)CC)NC(=O)[C@H]([C@@H](C)O)NC(=O)[C@H](CC(=O)O)NC1=O [[1-Nal15]ShK]
IC50 [1]: 0.184 nM | IC50 (hKv1.3): 0.072 nM | IC50 [2]: 0.291 nM

CC[C@H](C)[C@@H]1NC(=O)[C@@H](NC(=O)[C@H](CO)NC(=O)[C@@H](N)CCCNC(=N)N)CSSC[C@@H](C(=O)O)NC(=O)[C@H]([C@@H](C)O)NC(=O)CNC(=O)[C@@H]2CSSC[C@@H]3NC(=O)[C@H](Cc4cccc5ccccc45)NC(=O)[C@H](Cc4ccccc4)NC(=O)[C@H](C)NC(=O)[C@H]([C@@H](C)O)NC(=O)[C@H](CSSC[C@H](NC(=O)[C@H](Cc4ccccc4)NC(=O)[C@H](CO)NC(=O)[C@H](CC(C)C)NC(=O)[C@H](CCCNC(=N)N)NC(=O)[C@H](Cc4ccc(O)cc4)NC(=O)[C@H](CCCCN)NC(=O)[C@H](CCSC)NC(=O)[C@H](CO)NC(=O)[C@H](Cc4c[nH]cn4)NC(=O)[C@H](CCCCN)NC3=O)C(=O)N[C@@H](CCCNC(=N)N)C(=O)N[C@@H](CCCCN)C(=O)N[C@@H]([C@@H](C)O)C(=O)N2)NC(=O)[C@H](CCCNC(=N)N)NC(=O)[C@H](CO)NC(=O)[C@H](CCCCN)NC(=O)[C@@H]2CCCN2C(=O)[C@H]([C@@H](C)CC)NC(=O)[C@H]([C@@H](C)O)NC(=O)[C@H](CC(=O)O)NC1=O [[1-Nal16]ShK]
IC50 [1]: 28.9 nM | IC50 (hKv1.3): 0.699 nM | IC50 [2]: 9.55 nM

CC[C@H](C)[C@@H]1NC(=O)[C@@H](NC(=O)[C@H](CO)NC(=O)[C@@H](N)CCCNC(=N)N)CSSC[C@@H](C(=O)O)NC(=O)[C@H]([C@@H](C)O)NC(=O)CNC(=O)[C@@H]2CSSC[C@@H]3NC(=O)[C@H](CCC(N)=O)NC(=O)[C@H](Cc4ccccc4)NC(=O)[C@H](C)NC(=O)[C@H]([C@@H](C)O)NC(=O)[C@H](CSSC[C@H](NC(=O)[C@H](Cc4ccccc4)NC(=O)[C@H](CO)NC(=O)[C@H](CC(C)C)NC(=O)[C@H](CCCNC(=N)N)NC(=O)[C@H](Cc4ccc(O)cc4)NC(=O)[C@H](CCCCN)NC(=O)[C@H](CCSC)NC(=O)[C@H](CO)NC(=O)[C@H](Cc4c[nH]cn4)NC(=O)[C@H](Cc4cccc5ccccc45)NC3=O)C(=O)N[C@@H](CCCNC(=N)N)C(=O)N[C@@H](CCCCN)C(=O)N[C@@H]([C@@H](C)O)C(=O)N2)NC(=O)[C@H](CCCNC(=N)N)NC(=O)[C@H](CO)NC(=O)[C@H](CCCCN)NC(=O)[C@@H]2CCCN2C(=O)[C@H]([C@@H](C)CC)NC(=O)[C@H]([C@@H](C)O)NC(=O)[C@H](CC(=O)O)NC1=O [[1-Nal18]ShK]
IC50 [1]: 0.419 nM | IC50 (hKv1.3): 0.471 nM | IC50 [2]: 0.375 nM

CC[C@H](C)[C@@H]1NC(=O)[C@@H](NC(=O)[C@H](CO)NC(=O)[C@@H](N)CCCNC(=N)N)CSSC[C@@H](C(=O)O)NC(=O)[C@H]([C@@H](C)O)NC(=O)CNC(=O)[C@@H]2CSSC[C@@H]3NC(=O)[C@H](CCC(N)=O)NC(=O)[C@H](Cc4ccccc4)NC(=O)[C@H](C)NC(=O)[C@H]([C@@H](C)O)NC(=O)[C@H](CSSC[C@H](NC(=O)[C@H](Cc4ccccc4)NC(=O)[C@H](CO)NC(=O)[C@H](CC(C)C)NC(=O)[C@H](CCCNC(=N)N)NC(=O)[C@H](Cc4ccc(O)cc4)NC(=O)[C@H](CCCCN)NC(=O)[C@H](CCSC)NC(=O)[C@H](CO)NC(=O)[C@H](Cc4cccc5ccccc45)NC(=O)[C@H](CCCCN)NC3=O)C(=O)N[C@@H](CCCNC(=N)N)C(=O)N[C@@H](CCCCN)C(=O)N[C@@H]([C@@H](C)O)C(=O)N2)NC(=O)[C@H](CCCNC(=N)N)NC(=O)[C@H](CO)NC(=O)[C@H](CCCCN)NC(=O)[C@@H]2CCCN2C(=O)[C@H]([C@@H](C)CC)NC(=O)[C@H]([C@@H](C)O)NC(=O)[C@H](CC(=O)O)NC1=O [[1-Nal19]ShK]
IC50 [1]: 0.153 nM | IC50 (hKv1.3): 0.277 nM | IC50 [2]: 0.255 nM

CC[C@H](C)[C@@H]1NC(=O)[C@@H](NC(=O)[C@H](CO)NC(=O)[C@@H](N)CCCNC(=N)N)CSSC[C@@H](C(=O)O)NC(=O)[C@H]([C@@H](C)O)NC(=O)CNC(=O)[C@@H]2CSSC[C@@H]3NC(=O)[C@H](CCC(N)=O)NC(=O)[C@H](Cc4ccccc4)NC(=O)[C@H](C)NC(=O)[C@H]([C@@H](C)O)NC(=O)[C@H](CSSC[C@H](NC(=O)[C@H](Cc4ccccc4)NC(=O)[C@H](CO)NC(=O)[C@H](CC(C)C)NC(=O)[C@H](CCCNC(=N)N)NC(=O)[C@H](Cc4ccc(O)cc4)NC(=O)[C@H](CCCCN)NC(=O)[C@H](Cc4cccc5ccccc45)NC(=O)[C@H](CO)NC(=O)[C@H](Cc4c[nH]cn4)NC(=O)[C@H](CCCCN)NC3=O)C(=O)N[C@@H](CCCNC(=N)N)C(=O)N[C@@H](CCCCN)C(=O)N[C@@H]([C@@H](C)O)C(=O)N2)NC(=O)[C@H](CCCNC(=N)N)NC(=O)[C@H](CO)NC(=O)[C@H](CCCCN)NC(=O)[C@@H]2CCCN2C(=O)[C@H]([C@@H](C)CC)NC(=O)[C@H]([C@@H](C)O)NC(=O)[C@H](CC(=O)O)NC1=O [[1-Nal21]ShK]
IC50 [1]: 6.59 nM | IC50 (hKv1.3): 0.669 nM | IC50 [2]: 8.13 nM

CC[C@H](C)[C@@H]1NC(=O)[C@@H](NC(=O)[C@H](CO)NC(=O)[C@@H](N)CCCNC(=N)N)CSSC[C@@H](C(=O)O)NC(=O)[C@H]([C@@H](C)O)NC(=O)CNC(=O)[C@@H]2CSSC[C@@H]3NC(=O)[C@H](CCC(N)=O)NC(=O)[C@H](Cc4ccccc4)NC(=O)[C@H](C)NC(=O)[C@H]([C@@H](C)O)NC(=O)[C@H](CSSC[C@H](NC(=O)[C@H](Cc4ccccc4)NC(=O)[C@H](CO)NC(=O)[C@H](Cc4cccc5ccccc45)NC(=O)[C@H](CCCNC(=N)N)NC(=O)[C@H](Cc4ccc(O)cc4)NC(=O)[C@H](CCCCN)NC(=O)[C@H](CCSC)NC(=O)[C@H](CO)NC(=O)[C@H](Cc4c[nH]cn4)NC(=O)[C@H](CCCCN)NC3=O)C(=O)N[C@@H](CCCNC(=N)N)C(=O)N[C@@H](CCCCN)C(=O)N[C@@H]([C@@H](C)O)C(=O)N2)NC(=O)[C@H](CCCNC(=N)N)NC(=O)[C@H](CO)NC(=O)[C@H](CCCCN)NC(=O)[C@@H]2CCCN2C(=O)[C@H]([C@@H](C)CC)NC(=O)[C@H]([C@@H](C)O)NC(=O)[C@H](CC(=O)O)NC1=O [[1-Nal25]ShK]
IC50 [1]: 0.061 nM | IC50 (hKv1.3): 0.106 nM | IC50 [2]: 0.084 nM

— US20120121591A1 (priority 2009, published 2012)
